Measurements from patent publication US5153179A, “Medicament with improved penetration of the tissue membrane” (Max-Planck-Gesellschaft zur Foerderung der Wissenschaft e.V., priority 1983, dated 1992).
Values joined by “and” are separate entries in the source; they are usually repeats but may differ in a detail not shown here. Equal entries are not always repeated.

Experiment: Blood-brain barrier penetration by the method of Oldendorf (radioactively marked active material, A. carotis injection, brain radioactivity after 15 seconds)
Details: for percentage proportion of active material which has passed the blood-brain barrier, with C5: with addition of glycerol 1-pentyl ether; for percentage proportion of active material which has passed the blood-brain barrier, with C5 / percentage proportion of active material which has passed the blood-brain barrier, with C3: about 0.3 Osmol/l; for percentage proportion of active material which has passed the blood-brain barrier, with C5 / percentage proportion of active material which has passed the blood-brain barrier, without / percentage proportion of active material which has passed the blood-brain barrier, with C3: A. carotis, 15 seconds, + dissolved in inger albumin; for percentage proportion of active material which has passed the blood-brain barrier, without: without addition of a compound of the general formula; for percentage proportion of active material which has passed the blood-brain barrier, with C3: with addition of glycerol 1-propyl ether
Experimental: The effectiveness of the medicament according to the invention was tested according to the method of Oldendorf (Brain-Res., 24, 372-376 (1970)). […] In the case of the medicament according to the invention, the administration took place into the A. carotis. 15 seconds later, the experimental animal was decapitated, the brain removed and the radioactivity bound therein determined. […] The numerical values give the percentage proportion of active material which has passed the blood-brain barrier. As comparative substance, there was employed an isotonic buffer solution. The compound of the general formula was present in iso-osmolar concentration, which corresponds to about 0.3 Osmol/ 1. in the solution administered.
In the case of the experiments according to the method of Oldendorf, the active materials were used in amounts of between 10 and 100 μmol. There was thereby obtained no dependency of the penetration percentage of the active material concentration, i.e. that with increasing amount of active material, the percentage passing the blood-brain barrier remained about the same. In the case of methotrexate as active material, the penetration was also investigated in the case of higher concentrations.
The penetration achieved also depends upon the amount of glycerol derivative of the general formula used. Referring to the results given in Table 1, e.g. with endoxan and the C3 additive, there was achieved a penetration of scarcely 20%, whereas with an equal amount of the C5 additive the penetration lay above 50%. However, if one increases the amount of the C3 derivative 2.5 fold, then the percentage penetrating also increases to about 50%.

Row | percentage proportion of active material which has passed the blood-brain barrier, with C3 | proportion of active material advancing to the place of action at higher concentrations (higher concentrations, up to above 10 mMole) | Compound | percentage proportion of active material which has passed the blood-brain barrier, with C5 [%] | percentage proportion of active material which has passed the blood-brain barrier, without [%] | percentage penetrating with increased amount of the C3 derivative (amount of the C3 derivative increased 2.5 fold) | percentage proportion of active material passing the barrier at higher concentrations (up to above 10 mMole) | penetration improvement (FIG. 2, M.W. above 600)
1 |  |  | O=c1[nH]cc(F)c(=O)[nH]1 [5-fluorouracil] | 13.0 ± 0.1 | 3.7 ± 1.0 |  |  | 
2 | 16.4 ± 4.1% |  | CCCCCCCCCCCCCCCCCCOCC(COP(=O)([O-])OCC[N+](C)(C)C)OC (centres unmarked) [ET 18-O-CH3] |  | 4.5 ± 0.8 |  |  | 
3 | 5.7 ± 1.0% | a linear increase | CN(Cc1cnc2nc(N)nc(N)c2n1)c1ccc(C(=O)N[C@@H](CCC(=O)O)C(=O)O)cc1 [methotrexate] | 26.2 ± 5.8 | 4.7 ± 0.6 |  | practically the same percentage proportion of active material passing the barrier | 
4 |  |  | O=C1c2c(O)ccc(O)c2C(=O)c2c(NCCNCCO)ccc(NCCNCCO)c21 [mitoxandrone] | 25.1 ± 2.0 | 1.8 ± 0.1 |  |  | 
5 | 4.2 ± 0.6% |  | CC[C@]1(O)C[C@@H]2CN(CCc3c([nH]c4ccccc34)[C@@](C(=O)OC)(c3cc4c(cc3OC)N(C)[C@H]3[C@@](O)(C(=O)OC)[C@H](OC(C)=O)[C@]5(CC)C=CCN6CC[C@]43[C@@H]65)C2)C1 [vinblastine] | 44.3 ± 6.7 | 5.4 ± 1.7 |  |  | 
6 |  |  | bleomycin | 5.7 ± 1.8 | 4.9 ± 1.4 |  |  | relatively small

Row | Compound | percentage proportion of active material which has passed the blood-brain barrier, with C3 | proportion of active material advancing to the place of action at higher concentrations (higher concentrations, up to above 10 mMole) | percentage proportion of active material which has passed the blood-brain barrier, with C5 [%] | percentage proportion of active material which has passed the blood-brain barrier, without [%] | percentage penetrating with increased amount of the C3 derivative (amount of the C3 derivative increased 2.5 fold) | percentage proportion of active material passing the barrier at higher concentrations (up to above 10 mMole) | penetration improvement (FIG. 2, M.W. above 600)
7 | COc1cccc2c1C(=O)c1c(O)c3c(c(O)c1C2=O)C[C@@](O)(C(C)=O)C[C@@H]3O[C@H]1C[C@H](N)[C@H](O)[C@H](C)O1 [daunomycin] | 24.1 ± 3.3% |  | 76.8 ± 7.0 | 10.8 ± 2.7 |  |  | 
8 | O=P1(N(CCCl)CCCl)NCCCO1 (centres unmarked) [endoxan] | 18.9 ± 0.3% and ~20% |  |  | 11.4 ± 0.4 | about 50% |  | 
